Data as given in paper PMC5478271, “Chemical structure-guided design of dynapyrazoles, cell-permeable dynein inhibitors with a unique mode of action” (eLife, 2017).

Legend:
[1] = system: IMCD3 cells stably expressing mNeonGreen-IFT88; assay: Intraflagellar transport assay (mNeonGreen-IFT88 particles in primary cilia); type: cell-based, murine
Excerpt: To quantitatively assess the effect of dynapyrazole-A treatment on intraflagellar transport, we analyzed time-lapse images of cilia using KymographDirect, an automated analysis algorithm that extracts particle velocities from kymographs ([Mangeol et al., 2016]). […] Under control conditions (0.3% DMSO, Figure 4B), anterograde particles moved with a speed of 694 ± 117 nm/s (Figure 4D and F, mean ± S.D., 429 particles, 38 cilia) and retrograde particles moved at 421 ± 156 nm/s (Figure 4D and F, 244 particles, 38 cilia), consistent with previous studies ([Ye et al., 2013]). […] After 10 min of treatment, reductions in velocities were similar to those at the 5 min time point (Figure 4—figure supplement 1). Treatment of cilia with a higher dynapyrazole-A concentration (10 µM) slowed both retrograde- and anterograde-directed motion (Figure 4—figure supplement 2). […] We note that dynapyrazole-A, at concentrations close to the IC50 for inhibiting microtubule gliding in vitro, alters intraflagellar transport in a manner similar to what has been observed following dynein 2 loss-of-function in Chlamydomonas ([Engel et al., 2012]).
Murine inner medullary collecting duct (IMCD3) cells stably expressing mNeonGreen-IFT88 were maintained in DMEM/F12 supplemented with 10% FBS. Cells were typically passaged fewer than 10 times following thawing of frozen stocks. Cells were described previously ([Ye et al., 2013]). 6 × 10^5 cells were seeded onto 22-mm coverslips in a six well plate and incubated for 24 hr at 37°C. The media was then replaced with DMEM/F12 +0.2% FBS and cells were incubated 24 hr to promote cilium formation. Immediately prior to imaging, media was replaced with phenol red-free media (Leibovitz's L-15 + 0.2% FBS) containing either carrier solvent control (0.3% DMSO) or compound. IFT88 transport was observed using a TE2000-E spinning disk confocal microscope (Nikon PlanApo 100x/1.45 objective lens) fitted with a Photometrics Cascade II (EMCCD 512) camera and imaged at a frame rate of 2 frames/s. Kymographs were generated in FIJI using KymographClear and the velocities of mNeonGreen-IFT88 foci movement were quantified by KymographDirect ([Mangeol et al., 2016]). The algorithm used to identify IFT88 foci could identify particles with velocitities ≥ 25nm/s as moving particles.
For washout experiments, cells were exposed to a 5-min compound treatment as described above. Cells were then washed twice with 5 mL of L-15 supplemented with 10% FBSand 0.3% DMSO. A 5-min incubation followed each wash. Imaging was performed as described above immediately after the second 5-min wash and incubation step had been completed. For washout experiments shown in Figure 4—figure supplement 3, wash steps were performed with either L-15 supplemented with 10% FBS or L-15 supplemented with 0.2% FBS. Following washout of compound, cells were incubated at 37° for 60-min and then imaged.
Statistical analysis of intraflagellar transport frequencies: Run frequencies output directly from KymographDirect were tabulated across all cilia imaged in a given condition (see Figure 4—figure supplement 2). For each of two experimental conditions (5 µM 8, 10 µM 8) and the respective controls, an un-paired T-test was performed for the difference of means control and compound treatment. This analysis was performed for each direction of motion.

His-dynein 1 = biological target: T1, His-dynein 1 (Homo sapiens, UniProt Q14204); assay: Ultraviolet light and ADP-vanadate-dependent photocleavage of dynein; type: biochemical; conditions: 4 µM compound
T1 construct: (wild-type, K1912A, K2601A, AA 1320–4646, uniprot: Q14204); made in house; host or cells: Sf9 insect cells (baculovirus)
T1 sequence (Q14204 1320-4646): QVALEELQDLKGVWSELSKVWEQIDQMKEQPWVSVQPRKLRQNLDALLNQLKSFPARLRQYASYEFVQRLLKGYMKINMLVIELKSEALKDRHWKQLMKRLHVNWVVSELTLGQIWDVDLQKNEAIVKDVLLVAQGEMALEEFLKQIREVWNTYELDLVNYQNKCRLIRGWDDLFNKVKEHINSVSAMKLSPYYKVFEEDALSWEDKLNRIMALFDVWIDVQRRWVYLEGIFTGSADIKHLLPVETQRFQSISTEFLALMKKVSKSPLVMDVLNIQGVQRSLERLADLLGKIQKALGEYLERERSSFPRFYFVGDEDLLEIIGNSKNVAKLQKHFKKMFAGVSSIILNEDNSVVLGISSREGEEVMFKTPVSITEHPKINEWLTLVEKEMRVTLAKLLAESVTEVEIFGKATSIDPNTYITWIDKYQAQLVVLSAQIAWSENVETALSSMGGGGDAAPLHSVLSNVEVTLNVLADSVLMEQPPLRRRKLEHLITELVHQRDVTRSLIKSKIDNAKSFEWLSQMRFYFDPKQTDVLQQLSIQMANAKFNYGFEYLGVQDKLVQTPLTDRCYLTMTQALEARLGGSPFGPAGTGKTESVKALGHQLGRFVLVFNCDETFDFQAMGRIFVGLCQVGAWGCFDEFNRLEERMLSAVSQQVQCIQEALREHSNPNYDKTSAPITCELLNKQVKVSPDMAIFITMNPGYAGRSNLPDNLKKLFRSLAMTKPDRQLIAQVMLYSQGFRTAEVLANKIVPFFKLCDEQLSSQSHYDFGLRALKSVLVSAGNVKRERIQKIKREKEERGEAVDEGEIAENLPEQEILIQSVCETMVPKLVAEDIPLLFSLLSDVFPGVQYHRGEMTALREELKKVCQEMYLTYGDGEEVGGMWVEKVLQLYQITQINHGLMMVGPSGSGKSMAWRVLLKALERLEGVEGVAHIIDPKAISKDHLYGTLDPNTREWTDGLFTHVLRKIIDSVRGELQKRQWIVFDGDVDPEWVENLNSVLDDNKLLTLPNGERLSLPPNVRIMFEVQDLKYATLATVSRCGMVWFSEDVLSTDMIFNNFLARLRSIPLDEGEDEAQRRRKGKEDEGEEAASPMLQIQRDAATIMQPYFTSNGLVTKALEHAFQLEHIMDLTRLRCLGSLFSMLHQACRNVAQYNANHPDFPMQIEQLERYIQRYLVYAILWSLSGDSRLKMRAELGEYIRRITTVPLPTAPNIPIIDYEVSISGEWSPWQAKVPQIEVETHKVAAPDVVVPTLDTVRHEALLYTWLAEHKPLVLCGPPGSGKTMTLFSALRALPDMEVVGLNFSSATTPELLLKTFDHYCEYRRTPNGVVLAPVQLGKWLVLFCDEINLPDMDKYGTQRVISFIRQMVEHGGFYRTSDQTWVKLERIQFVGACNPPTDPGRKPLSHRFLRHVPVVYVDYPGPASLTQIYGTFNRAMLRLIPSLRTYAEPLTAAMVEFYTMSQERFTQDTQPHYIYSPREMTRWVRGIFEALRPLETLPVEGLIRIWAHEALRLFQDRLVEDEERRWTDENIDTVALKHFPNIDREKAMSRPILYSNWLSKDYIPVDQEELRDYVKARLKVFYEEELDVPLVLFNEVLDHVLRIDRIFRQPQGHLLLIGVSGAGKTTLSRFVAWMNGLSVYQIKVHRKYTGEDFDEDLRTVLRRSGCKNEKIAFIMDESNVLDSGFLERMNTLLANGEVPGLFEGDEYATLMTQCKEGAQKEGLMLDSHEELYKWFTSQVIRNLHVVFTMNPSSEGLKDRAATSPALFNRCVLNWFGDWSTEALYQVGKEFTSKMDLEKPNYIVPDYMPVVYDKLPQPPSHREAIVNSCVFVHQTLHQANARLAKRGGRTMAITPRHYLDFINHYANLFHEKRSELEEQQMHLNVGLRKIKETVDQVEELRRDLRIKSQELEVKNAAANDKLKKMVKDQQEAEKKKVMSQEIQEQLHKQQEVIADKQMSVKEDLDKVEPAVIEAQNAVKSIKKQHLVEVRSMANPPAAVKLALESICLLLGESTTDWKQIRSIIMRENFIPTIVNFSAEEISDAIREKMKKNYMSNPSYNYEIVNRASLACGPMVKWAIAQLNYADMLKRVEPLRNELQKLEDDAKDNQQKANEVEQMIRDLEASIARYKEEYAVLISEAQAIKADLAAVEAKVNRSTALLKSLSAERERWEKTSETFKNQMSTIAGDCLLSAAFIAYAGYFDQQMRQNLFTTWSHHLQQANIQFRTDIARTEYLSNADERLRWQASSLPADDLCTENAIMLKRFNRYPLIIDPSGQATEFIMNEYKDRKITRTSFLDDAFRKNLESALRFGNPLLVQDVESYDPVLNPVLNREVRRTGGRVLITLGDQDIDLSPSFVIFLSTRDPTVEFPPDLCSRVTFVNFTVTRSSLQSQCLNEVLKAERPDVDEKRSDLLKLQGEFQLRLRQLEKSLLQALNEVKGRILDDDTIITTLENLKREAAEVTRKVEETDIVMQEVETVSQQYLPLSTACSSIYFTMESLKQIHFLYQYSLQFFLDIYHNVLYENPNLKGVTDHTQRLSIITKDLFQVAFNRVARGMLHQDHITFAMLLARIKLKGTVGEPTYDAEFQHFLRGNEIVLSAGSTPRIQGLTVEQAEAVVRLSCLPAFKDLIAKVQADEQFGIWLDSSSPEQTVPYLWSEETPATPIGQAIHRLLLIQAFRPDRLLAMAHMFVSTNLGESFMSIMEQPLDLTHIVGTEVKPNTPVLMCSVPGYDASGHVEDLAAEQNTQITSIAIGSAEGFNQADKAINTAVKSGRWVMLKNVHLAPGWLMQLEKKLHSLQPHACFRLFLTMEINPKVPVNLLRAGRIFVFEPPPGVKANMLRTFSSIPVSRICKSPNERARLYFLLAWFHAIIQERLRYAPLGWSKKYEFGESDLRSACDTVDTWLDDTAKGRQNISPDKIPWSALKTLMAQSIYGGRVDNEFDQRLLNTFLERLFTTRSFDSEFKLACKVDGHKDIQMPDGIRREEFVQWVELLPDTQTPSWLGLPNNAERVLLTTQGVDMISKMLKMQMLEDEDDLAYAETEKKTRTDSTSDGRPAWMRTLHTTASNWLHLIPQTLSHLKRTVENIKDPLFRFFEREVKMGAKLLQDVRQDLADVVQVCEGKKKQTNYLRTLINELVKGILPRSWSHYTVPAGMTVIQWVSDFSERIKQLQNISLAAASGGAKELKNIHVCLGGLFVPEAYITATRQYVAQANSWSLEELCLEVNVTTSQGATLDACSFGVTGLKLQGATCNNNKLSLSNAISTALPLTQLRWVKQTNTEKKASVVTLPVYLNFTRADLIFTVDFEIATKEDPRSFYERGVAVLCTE
Description: Thirty-microliter reactions were prepared in 96-well plates as follows. ATPase buffer was supplemented with concentrated stocks of His-dynein 1 (90nM final), compound 8 (4µM final) or an equivalent amount of solvent carrier (3.3% DMSO), followed by a 10 min incubation at room temperature. ATP (0.1 mM final) was added and the mixtures were incubated 5 min at room temperature. NaVO3 (0.1 mM final) was added and the mixtures were again incubated 5 min at room temperature. Vanadate was deliberately omitted from one well. The plate was then transferred to ice and irradiated with 365 nm light for 15 min with the lamp positioned 10 cm above the plate(Spectroline Maxima ML-3500S lamp). Following addition of SDS-PAGE loading buffer and heating (95°, 5 min), individual reactions were resolved on hand-poured 8% tris-glycine polyacrylamide gels. Gels were stained (Coomassie blue), imaged using a Li-Cor Odyssey, and band intensities were analyzed using FIJI.
Quantification of ADP-vanadate dependent photocleavage of dynein was performed as follows: Scanned gels were analyzed with FIJI, and fraction cleaved quantified as follows:
Fraction cleaved = (intensity of band at 250 kDa) /
(intensity of band at 250 kDa + intensity of band at ~350 kDa)

IMCD3 cells = assay: Cellular ATP content (CellTiter-Glo cytotoxicity assay); type: cell-based, murine
Description: Murine inner medullary collecting duct (IMCD3) cells stably expressing mNeonGreen-IFT88 (described previously [[Ye et al., 2013]]) were maintained in DMEM/F12 supplemented with 10% FBS. Cell line identity was confirmed by the proper localization and motility of mNeonGreen IFT88 puncta, in reference to published analyses from our groups and from the work of others ([Ye et al., 2013]; [Yang et al., 2015]). Cells were seeded in a 96-well plate at a density of 5 × 10^3 cells/well. Following overnight incubation, low-serum media (0.2% FBS) containing solvent control (0.3% DMSO) or compound. At fixed time points, CellTiter-Glo 2.0 (Promega) reagent was added to the wells, mixed by pipetting, and transferred to a white, opaque 96-well plate. After a 10 min incubation, luminescence for each condition was read using a Synergy Neo plate reader (1 s integration time per well).

[2] = 5 µM 5 min, then washout 10 min in 10% FBS, 0.3% DMSO
[3] = 5 µM, then 0.2% FBS washout for 1 hr
[4] = 5 µM, then 10% FBS washout for 1 hr

## N#Cc1c(C2(c3ccc(Cl)cc3)CC2)nn2c1[nH]c(=O)c1cc(I)ccc12 [Compound 8, 2-[1-(4-chlorophenyl)cyclopropyl]-7-iodo-5-oxo-4H-pyrazolo[1,5-a]quinazoline-3-carbonitrile]
[1]; [2]
  Fa, anterograde frequency after washout: 14.2 ± 6 counts/minute
  Fr, retrograde frequency after washout: 9.6 ± 7 counts/minute
  Va, anterograde velocity after washout: 697 ± 149 nm/s
  Vr, retrograde velocity after washout: 467 ± 136 nm/s
[1]; 5 µM, 5 min, versus DMSO control
  Reduction of anterograde particle velocities: ~ 18%
[1]; 5 µM, 5 min, DMSO control 6.5 ± 4
  Fr, retrograde frequency: 4.1 ± 3 counts/minute
[1]; 5 µM, 5 min, DMSO control 11.3 ± 3
  Fa, anterograde frequency: 8.5 ± 5 counts/minute
[1]; 5 µM, 5 min, DMSO control 421 ± 156
  Vr, retrograde velocity: 156 ± 107 nm/s
[1]; 5 µM, 5 min, DMSO control 694 ± 117
  Va, anterograde velocity: 566 ± 116 nm/s
[1]; 5 µM, 10 min, DMSO control 5.9 ± 3
  Fr, retrograde frequency: 4.2 ± 3 counts/minute
[1]; 5 µM, 10 min, DMSO control 10.2 ± 3
  Fa, anterograde frequency: 6.9 ± 4 counts/minute
[1]; 5 µM, 10 min, DMSO control 354 ± 134
  Vr, retrograde velocity: 202 ± 180 nm/s
[1]; 5 µM, 10 min, DMSO control 655 ± 124
  Va, anterograde velocity: 572 ± 121 nm/s
[1]; [3]
  Fa, anterograde frequency after low-serum washout: 10.1 ± 4 counts/minute
  Fr, retrograde frequency after low-serum washout: 5.2 ± 2 counts/minute
  Va, anterograde velocity after low-serum washout: 620 ± 134 nm/s
  Vr, retrograde velocity after low-serum washout: 219 ± 117 nm/s
[1]; [4]
  Fa, anterograde frequency after high-serum washout: 18.8 ± 5 counts/minute
  Fr, retrograde frequency after high-serum washout: 12.4 ± 6 counts/minute
  Va, anterograde velocity after high-serum washout: 660 ± 112 nm/s
  Vr, retrograde velocity after high-serum washout: 441 ± 156 nm/s
[1]; 10 µM
  Fa, anterograde frequency: 6.8 ± 4 counts/minute
  Fr, retrograde frequency: 4.0 ± 2 counts/minute
  Va, anterograde velocity: 466 ± 183 nm/s
  Vr, retrograde velocity: 121 ± 78 nm/s
His-dynein 1
  Reduction of ADP-vanadate dependent photocleavage relative to controls: ~ 2.5 fold
His-dynein 1; 100 µM ATP, 100 µM vanadate, control 42 ± 3%
  ADP-vanadate dependent photocleavage of His-dynein 1: 17 ± 2%
IMCD3 cells; 5 µM, low-serum or serum-free media
  ATP levels in cells: stable for up to 3 hr
IMCD3 cells; 15 µM, at 3 hr
  Lowering of intracellular ATP levels: ~ 70%
